Measured values published in patent US8293734B2, “Nitroimidazooxazine and nitroimidazooxazole analogues and their uses” (priority 2009, dated 2012).
≈ marks a conversion by molar mass, not a printed value. Like-named read-outs stand apart in the source and are kept apart here.

Legend:
[1] = test system: replicating Mycobacterium tuberculosis; test: MABA microplate Alamar blue assay, MIC (aerobic); type: cell-based; conditions: 192 h
VERO cells (CCL-81) = test: Mammalian cell cytotoxicity assay (tetrazolium dye); type: cell-based; conditions: Chlorocebus sabaeus, read-out: IC50 VERO
Procedure: (b) Mammalian cell cytotoxicity assay. This was assessed against VERO cells (CCL-81, American Type Culture Collection) in a 72 h exposure, using a tetrazolium dye assay (Falzari et al., 2005).

[2] = test system: Trypanosoma cruzi amastigotes (Tulahuen C2C4 strain); test: Trypanosoma cruzi assay in infected L-6 cells; type: cell-based; conditions: L6, 96 h incubation, read-out: IC50 T. cruzi
Procedure: (§1) (c) Antiprotozoal screening. Compounds were evaluated for their activities against both Trypanosoma cruzi amastigotes and Leishmania donovani amastigotes (free or encapsulated in macrophages), according to the following protocols:
(i) Trypanosoma cruzi assay. L-6 cells (2×10^3) in medium (100 μL of RPMI 1640 supplemented with 2 mM L-glutamine plus 10% heat inactivated fetal calf serum) were seeded in 96-well microtitre plates (Costar™) and incubated at 37° C. (5% CO2) for 1d. A suspension (50 μL) of Trypanosoma cruzi trypomastigotes (5×10^3 of Tulahuen C2C4 strain, containing the β-galactosidase gene) was added, and the cells were incubated at 37° C. (5% CO2) for a further 48 h to establish the infection. The medium was removed and replaced by fresh medium and the infected cells were then incubated at 37° C. (5% CO2) for 96 h in either medium alone or in the presence of serial (3-fold) dilutions of test compounds (initially prepared as 10 mg/mL stock solutions in DMSO and diluted into medium). Benznidazole was employed as a standard in each assay. Following incubation, chlorophenol red glycoside (100 mM) in 0.1% Nonidet P40/PBS (50 μL) was added, and (after 6 h) the absorbance at 540 nm was measured and used to calculate the IC50 values.

[3] = test system: Axenically grown L. donovani amastigotes (MHOM-ET-67/L82); test: Axenic Leishmania donovani assay; type: cell-based; conditions: 70 h incubation, read-out: IC50 L. donovani axen
Procedure: as §1
(ii) Axenic Leishmania donovani assay. Axenically grown L. donovani amastigotes (MHOM-ET-67/L82) from a healthy culture in log phase were seeded at a density of 1×10^6/mL medium (SM, pH 5.4 plus 10% heat inactivated fetal calf serum) in 96-well microtitre plates (Costar™) and incubated at 37° C. (5% CO2) for 70 h in either medium alone or in the presence of serial (3-fold) dilutions of test compounds (initially prepared as 10 mg/mL stock solutions in DMSO and diluted into medium). Miltefosin was employed as a standard in each assay. After incubation, Resazurin fluorescent dye was added to each well, and incubation was continued for an additional 2 h. The IC50 values were determined from measurements of the fluorescence data.

[4] = test system: L. donovani amastigotes (MHOM-ET-67/L82) in mouse macrophages; test: Leishmania donovani infected macrophage assay; type: cell-based; conditions: 96 h incubation, read-out: IC50 L. donovani macro
Procedure: as §1
(iii) Leishmania donovani infected macrophage assay. Freshly harvested mouse macrophages in medium (RPMI 1640 plus 10% heat inactivated fetal calf serum) were incubated at 37° C. (5% CO2) for 24 h and then infected (1:3 macrophages to amastigotes) with an axenic L. donovani amastigote culture (MHOM-ET-67/L82) in medium (SM, pH 5.4 plus 10% heat inactivated fetal calf serum). The infected macrophages were seeded at a density of 1.2×10^6/mL (by diluting in RPMI+10% FCS) in 16-well slides (Lab-tek™) and incubated at 37° C. (5% CO2) for 24 h. The medium was removed and replaced by fresh medium (RPMI 1640+10% FCS), and this was repeated following mixing. The infected macrophages were then incubated at 37° C. (5% CO2) for 96 h in either medium alone or in the presence of serial (3-fold) dilutions of test compounds (initially prepared as 10 mg/mL stock solutions in DMSO and diluted into medium). Miltefosin was employed as a standard in each assay. […], the slides were fixed (5 min in 100% MeOH) and stained (10% Giemsa, 10 min). The ratio of infected to uninfected macrophages was determined by microscopic examination, and the IC50 values were then calculated by linear regression analysis.

SMILES | melting point | other results
O=[N+]([O-])c1cn2c(n1)OC(COc1ccc(OC(F)(F)F)cc1)C2 (centres unmarked) | 170 to 172 °C | –
CC1(COc2ccc(-c3ccc(F)cc3)cn2)Cn2cc([N+](=O)[O-])nc2O1 (centres unmarked) | 162 to 164 °C | –
CC1(COc2ccc(-c3ccc(OC(F)(F)F)cc3)cn2)Cn2cc([N+](=O)[O-])nc2O1 (centres unmarked) | 172 to 174 °C | –
CC1(COc2ccc(-c3ccc(F)cc3)nc2)Cn2cc([N+](=O)[O-])nc2O1 (centres unmarked) | 180 to 181 °C | –
CC1(COc2ccc(-c3ccc(OC(F)(F)F)cc3)nc2)Cn2cc([N+](=O)[O-])nc2O1 (centres unmarked) | 209 to 211 °C | –
CC1(COc2ncc(-c3ccc(F)cc3)cn2)Cn2cc([N+](=O)[O-])nc2O1 (centres unmarked) | 196 °C (dec.) | –
CC1(COc2ncc(-c3ccc(OC(F)(F)F)cc3)cn2)Cn2cc([N+](=O)[O-])nc2O1 (centres unmarked) | 227 °C (dec.) | –
CC1(COc2cnc(-c3ccc(F)cc3)nc2)Cn2cc([N+](=O)[O-])nc2O1 (centres unmarked) | 201 to 203 °C | –
O=[N+]([O-])c1cn2c(n1)OC(COc1ccc(OCc3ccccc3)cc1)C2 (centres unmarked) | 208 to 210 °C | –
CC1(COc2cnc(-c3ccc(OC(F)(F)F)cc3)nc2)Cn2cc([N+](=O)[O-])nc2O1 (centres unmarked) | 223 to 225 °C | –
CC1(COc2cnc(-c3ccc(F)cc3)cn2)Cn2cc([N+](=O)[O-])nc2O1 (centres unmarked) | 200 to 201 °C | –
CC1(COc2cnc(-c3ccc(OC(F)(F)F)cc3)cn2)Cn2cc([N+](=O)[O-])nc2O1 (centres unmarked) | 222 to 224 °C | –
O=[N+]([O-])c1cn2c(n1)OC(COCc1ccc(OC(F)(F)F)cc1)C2 (centres unmarked) | 134 to 135 °C | –
O=[N+]([O-])c1cn2c(n1)OC(COCc1ccc(OCc3ccccc3)cc1)C2 (centres unmarked) | 123 to 124 °C | –
O=[N+]([O-])c1cn2c(n1)OC(COc1ccc(-c3ccc(F)cc3)cc1)C2 (centres unmarked) | 224 to 226 °C | –
O=[N+]([O-])c1cn2c(n1)OC(COc1ccc(-c3ccc(C(F)(F)F)cc3)cc1)CC2 (centres unmarked) | 242 to 245 °C | –
O=[N+]([O-])c1cn2c(n1)OC(COc1ccc(-c3ccc(OC(F)(F)F)cc3)cn1)CC2 (centres unmarked) | 161 to 163 °C | –
CC1(COc2ccc(OCc3ccccc3)cc2)CCn2cc([N+](=O)[O-])nc2O1 (centres unmarked) | 174 to 176 °C | –
CC1(COc2ccc(-c3ccc(F)cc3)cc2)CCn2cc([N+](=O)[O-])nc2O1 (centres unmarked) | 160 to 162 °C | –
CC1(COc2ccc(-c3ccc(C(F)(F)F)cc3)cc2)CCn2cc([N+](=O)[O-])nc2O1 (centres unmarked) | 196 to 198 °C | –
O=[N+]([O-])c1cn2c(n1)OC(COc1ccc(-c3ccc(C(F)(F)F)cc3)cc1)C2 (centres unmarked) | 210 to 211 °C | –
CC1(COc2ccc(-c3ccc(C(F)(F)F)cc3)cn2)CCn2cc([N+](=O)[O-])nc2O1 (centres unmarked) | 212 to 214 °C | –
CC1(COc2ccc(-c3ccc(OC(F)(F)F)cc3)cn2)CCn2cc([N+](=O)[O-])nc2O1 (centres unmarked) | 195 to 198 °C | –
CC1(COc2ccc(-c3ccc(C(F)(F)F)cc3)nc2)CCn2cc([N+](=O)[O-])nc2O1 (centres unmarked) | 215 to 217 °C | –

SMILES | melting point | other results
CC1(COc2ccc(-c3ccc(OC(F)(F)F)cc3)nc2)CCn2cc([N+](=O)[O-])nc2O1 (centres unmarked) | 202 to 203 °C | –
O=[N+]([O-])c1cn2c(n1)OC(COc1ccc(-c3ccc(OC(F)(F)F)cc3)cc1)C2 (centres unmarked) | 200 to 201 °C | –
CC1(COCc2cccc(OC(F)(F)F)c2)CCn2cc([N+](=O)[O-])nc2O1 (centres unmarked) | 108 to 110 °C | –
CC1(COCc2ccc(OC(F)(F)F)cc2)CCn2cc([N+](=O)[O-])nc2O1 (centres unmarked) | 100 to 101 °C | –
CC1(COCc2cccc(-c3ccc(OC(F)(F)F)cc3)c2)CCn2cc([N+](=O)[O-])nc2O1 (centres unmarked) | 80 to 82 °C | –
O=[N+]([O-])c1cn2c(n1)OC(COc1ccc(-c3ccc(OC(F)(F)F)cc3)cn1)C2 (centres unmarked) | 127 to 130 °C | –
O=[N+]([O-])c1cn2c(n1)OC[C@@H](COc1ccc(OC(F)(F)F)cc1)C2 | 138 to 139 °C | –
O=[N+]([O-])c1cn2c(n1)OC[C@H](COc1ccc(OC(F)(F)F)cc1)C2 | 139 to 140 °C | –
O=[N+]([O-])c1cn2c(n1)OCC(COc1ccc(-c3ccc(F)cc3)cc1)C2 (centres unmarked) | 201 to 203 °C | –
O=[N+]([O-])c1cn2c(n1)OCC(COc1ccc(-c3ccc(C(F)(F)F)cc3)cc1)C2 (centres unmarked) | 218 to 221 °C | –
O=[N+]([O-])c1cn2c(n1)OCC(COc1ccc(-c3ccc(OC(F)(F)F)cc3)cc1)C2 (centres unmarked) | 192 to 194 °C | –
O=[N+]([O-])c1cn2c(n1)OCC(COc1ccc(-c3ccc(F)cc3)cn1)C2 (centres unmarked) | 160 to 161 °C | –
O=[N+]([O-])c1cn2c(n1)OCC(COc1ccc(-c3ccc(C(F)(F)F)cc3)cn1)C2 (centres unmarked) | 180 to 182 °C | –
O=[N+]([O-])c1cn2c(n1)OCC(COc1ccc(-c3ccc(OC(F)(F)F)cc3)cn1)C2 (centres unmarked) | 182 to 183 °C | –
O=[N+]([O-])c1cn2c(n1)OCC(COc1ccc(-c3ccc(F)cc3)nc1)C2 (centres unmarked) | 214 to 216 °C | –
O=[N+]([O-])c1cn2c(n1)OCC(COc1ccc(-c3ccc(C(F)(F)F)cc3)nc1)C2 (centres unmarked) | 233 to 235 °C | –
O=[N+]([O-])c1cn2c(n1)OCC(COc1ccc(-c3ccc(OC(F)(F)F)cc3)nc1)C2 (centres unmarked) | 180 to 181 °C | –
O=[N+]([O-])c1cn2c(n1)OC(COc1ccc(OCc3ccccc3)cc1)CC2 (centres unmarked) (hydrate or solvate) | 222 to 224 °C | –
O=[N+]([O-])c1cn2c(n1)OCC(COc1ccc(OC(F)(F)F)cc1)C2 (racemic) | 141 to 143 °C | –
CC1(COc2ccc(-c3ccc(F)cc3)cc2)Cn2cc([N+](=O)[O-])nc2O1 (centres unmarked) [Compound 10, 2-{[(4′-fluoro[1,1′-biphenyl]-4-yl)oxy]methyl}-2-methyl-6-nitro-2,3-dihydroimidazo[2,1-b][1,3]oxazole] | 180 to 181 °C | MIC [1]: 0.045 µM (≈ 0.0166 µg/mL); IC50 (VERO cells (CCL-81); 72 h exposure): > 128 µM; IC50 [2]: 2 µg/mL (≈ 5.41 µM); IC50 [3]: 0.04 µg/mL (≈ 0.108 µM); IC50 [4]: 0.23 µg/mL (≈ 0.623 µM)
CC1(COc2ccc(-c3ccc(C(F)(F)F)cc3)cc2)Cn2cc([N+](=O)[O-])nc2O1 (centres unmarked) [Compound 11, 2-methyl-6-nitro-2-({[4′-(trifluoromethyl)[1,1′-biphenyl]-4-yl]oxy}methyl)-2,3-dihydroimidazo[2,1-b][1,3]oxazole] | 219 to 220 °C | MIC [1]: 0.08 µM (≈ 0.0335 µg/mL); IC50 (VERO cells (CCL-81); 72 h): > 128 µM; IC50 [2]: 18 µg/mL (≈ 42.9 µM); IC50 [3]: 0.028 µg/mL (≈ 0.0668 µM); IC50 [4]: 0.47 µg/mL (≈ 1.12 µM)
O=[N+]([O-])c1cn2c(n1)OC(COCc1ccc(OCc3ccccc3)cc1)CC2 (centres unmarked) [Compound 49, 7-({[4-(benzyloxy)benzyl]oxy}methyl)-2-nitro-6,7-dihydro-5H-imidazo[2,1-b][1,3]oxazine] | 151 to 153 °C | IC50 (VERO cells (CCL-81); 72 h exposure): > 128 µM; IC50 [2]: 0.55 µg/mL (≈ 1.39 µM); IC50 [3]: 0.048 µg/mL (≈ 0.121 µM); IC50 [4]: 0.065 µg/mL (≈ 0.164 µM)
O=[N+]([O-])c1cn2c(n1)OCC(COCc1ccc(OCc3ccccc3)cc1)C2 (centres unmarked) [Compound 73, 6-({[4-(benzyloxy)benzyl]oxy}methyl)-2-nitro-6,7-dihydro-5H-imidazo[2,1-b][1,3]oxazine] | 150 to 151 °C | IC50 (VERO cells (CCL-81); 72 h exposure): 113 µM; IC50 [2]: 2.8 µg/mL (≈ 7.08 µM); IC50 [3]: 0.16 µg/mL (≈ 0.405 µM); IC50 [4]: 0.53 µg/mL (≈ 1.34 µM)
